According to patent US9422262B2, “Compounds and methods for treating diseases mediated by protease activated receptors” (The Broad Institute, Inc., priority 2010, dated 2016):
Where “and” joins values, the source holds several entries; their conditions need not be identical. Equal values may be shown once.

Assays:
Par1 (thrombin) receptor = molecular target: T1, Par1 (thrombin) receptor (Homo sapiens, UniProt P25116); test: SFLLRN-mediated granule secretion, platelet-rich plasma, luciferin-luciferase ATP readout (primary assay); format: cell-based; settings: two retests of the probe; platelet-rich plasma; read-out: IC50, SFLLRN-mediated granule secretion
T1 construct: endogenous in cells; host or cells: platelets (platelet-rich plasma; washed platelets from individual donors)
T1 sequence (P25116 22-425): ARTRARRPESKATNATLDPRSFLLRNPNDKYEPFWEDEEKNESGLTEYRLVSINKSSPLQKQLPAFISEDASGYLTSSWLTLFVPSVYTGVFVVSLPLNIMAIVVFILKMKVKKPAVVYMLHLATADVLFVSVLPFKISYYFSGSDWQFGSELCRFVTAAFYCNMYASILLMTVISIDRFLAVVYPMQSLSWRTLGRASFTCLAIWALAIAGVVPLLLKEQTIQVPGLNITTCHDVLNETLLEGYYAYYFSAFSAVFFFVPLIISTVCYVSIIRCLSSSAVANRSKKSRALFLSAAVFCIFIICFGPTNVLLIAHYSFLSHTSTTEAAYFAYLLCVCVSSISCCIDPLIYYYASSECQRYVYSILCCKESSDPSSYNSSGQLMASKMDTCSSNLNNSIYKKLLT
Experimental: The compounds were tested in two independent IC50 determination experiments using the primary assay measuring SFLLRN-mediated granule secretion. For this assay, platelet-rich plasma is treated with putative inhibitors prior to activation by the SFLLRN peptide, which targets the Par1 (thrombin) receptor. Upon activation, platelets secrete dense granules, which are concentrated with ATP. Platelet activation and possible inhibition are monitored by a luciferin-luciferase assay (CellTiter-Glo without lysis reagent) to measure the ATP secreted from activated platelets. Luminescence measurements are made using a plate reader (Envision, PerkinElmer) capable of detecting luminescence.

platelets = test: PMA- or Ca2+ ionophore-induced platelet activation (P-selectin, flow cytometry); format: cell-based, human; settings: washed platelets, 6 point dose curve
Experimental: For these assays, the probe is incubated with washed platelets obtained from individual donors in a 6 point dose curve. Platelets are subsequently stimulated with either PMA or Ca2+ ionophore. After 15 minutes, phycoerythrin-labeled anti-P-selectin antibody (BD Biosciences) is added to the incubation mixture. Following a 20-minute incubation, a sample is analyzed by flow cytometry for staining of P-selectin.

Gαq-mediated Ca2+ flux = test: SFLLRN-induced Gαq-mediated Ca2+ flux in MDCK cells; format: cell-based; settings: FIG. 3C
Description: (§1) This pattern of inhibition is consistent with that of an allosteric inhibitor. […] This observation raised the possibility that compound 1 blocks PAR1 signaling through Gαq (which mediates platelet aggregation downstream of PAR1), but not Gα12/13 (which mediates shape change downstream of PAR1). A previously identified PAR1 inhibitor, 3,5-difluoro aminoisoxazole (3,5-DFAI), inhibited both shape change and aggregation. Shape change that occurred in the presence of compound 1 was blocked by the Rho kinase inhibitor Y27632, confirming participation of Rho kinase downstream of Gα12/13 in compound-1-resistance shape change (FIG. 3A). […] PAR1-mediated decrease in TER in these cells is dependent on Gα12. […] In contrast, 3,5-DFAI inhibited SFLLRN-mediated decrease in TER (FIG. 3B) and compound 1 inhibited Gαq-mediated Ca^2+ flux in these MDCK cells (FIG. 3C).

thrombus formation = test: Thrombus formation following laser-induced injury of the cremaster arteriole in mice; format: in vivo
Description: PAR1 is the thrombin receptor on human platelets and serves an important function in mediating thrombus formation. We tested compound 1 to determine whether it inhibited thrombus formation following laser-induced injury of the cremaster arteriole in mice. The dominant PAR receptor on mouse platelets is PAR4. However, since compound 1 acts at a non-orthosteric site and mouse PAR4 differs from human PAR4, we reasoned that compound 1 may be able to block mouse PAR4. […] When infused into mice at a concentration of 5 mg/kg, compound 1 inhibited platelet accumulation during thrombus formation by >90% (FIG. 4B). Infusion of 5 mg/kg also impaired fibrin generation during thrombus formation (FIG. 4C). Thus, compound 1 blocks both cellular- and coagulation protein-mediated arms of thrombus formation. […] The compound was therefore infused every 30 minutes during the course of these experiments. The short half-life of compound 1 in vivo may be useful in scenarios in which anticoagulation is only required for a short period of time or when anticoagulation needs to be reversed quickly, such as anticoagulation prior to invasive procedures or surgery.
Since there are also situations in which longer term anticoagulation is desired, we performed further studies in the thrombus formation model to assess analogs of compound 1 that may have a more long-lived effect. […] This instability in mouse plasma may have contributed to its short half-life of efficacy in vivo.

PAR1 [1] = molecular target: T2, PAR1 (Homo sapiens, UniProt P25116); test: Ca2+ flux in HEK293 cells overexpressing recombinant PAR1; format: cell-based; set-up: expressed in transfected cells; host or cells: HEK293; settings: concentrations similar to those for inhibition of P-selectin expression; FIG. 1B
T2 sequence (P25116 22-425): T1 sequence (P25116 22-425)

PAR1 [2] = molecular target: T2, PAR1; test: PAR1-mediated platelet aggregation and shape change; format: cell-based; set-up: endogenous in cells; host or cells: platelets (platelet-rich plasma; washed platelets from individual donors); settings: FIG. 3A
Description: as §1

CCCC(=O)Nc1cccc(NC(=O)c2ccccc2Br)c1 [Compound 1]
IC50 (Par1 (thrombin) receptor): 4.87 µM and 5.28 µM
effect on Ca2+ ionophore-induced activation of platelets (platelets): did not show any effect
effect on PMA-induced activation of platelets (platelets): did not show any effect
Gαq-mediated Ca2+ flux (Gαq-mediated Ca2+ flux): inhibited
inhibition of platelet accumulation during thrombus formation (thrombus formation; 5 mg/kg infused every 30 minutes, FIG. 4B): > 90%
fibrin generation during thrombus formation (thrombus formation; infusion of 5 mg/kg, FIG. 4C): impaired
changes in Ca2+ flux in HEK293 cells overexpressing recombinant PAR1 (PAR1 [1]): inhibits
PAR1-mediated platelet aggregation (PAR1 [2]): inhibited
PAR1-mediated platelet shape change (PAR1 [2]): failed to inhibit
